Reference: patent US7700634B2, “(Indol-3-yl) heterocycle derivatives as agonists of the cannabinoid CB1 receptor” (N.V. Organon, priority 2004, dated 2010)
Counter-ions that a name gives are not always drawn.

Experiments:
human CB1 receptor = molecular target: T1, human CB1 receptor (Homo sapiens, UniProt P21554); assay: In-vitro efficacy and potency at the human CB1 receptor expressed in CHO cells (luciferase reporter gene assay); type: cell-based; conditions: CHO cells expressing human CB1 receptor and luciferase reporter gene; 5 h incubation at 37° C.
T1 construct: expressed in transfected cells; host or cells: Chinese Hamster Ovary (CHO) cells
T1 sequence (P21554 whole entry): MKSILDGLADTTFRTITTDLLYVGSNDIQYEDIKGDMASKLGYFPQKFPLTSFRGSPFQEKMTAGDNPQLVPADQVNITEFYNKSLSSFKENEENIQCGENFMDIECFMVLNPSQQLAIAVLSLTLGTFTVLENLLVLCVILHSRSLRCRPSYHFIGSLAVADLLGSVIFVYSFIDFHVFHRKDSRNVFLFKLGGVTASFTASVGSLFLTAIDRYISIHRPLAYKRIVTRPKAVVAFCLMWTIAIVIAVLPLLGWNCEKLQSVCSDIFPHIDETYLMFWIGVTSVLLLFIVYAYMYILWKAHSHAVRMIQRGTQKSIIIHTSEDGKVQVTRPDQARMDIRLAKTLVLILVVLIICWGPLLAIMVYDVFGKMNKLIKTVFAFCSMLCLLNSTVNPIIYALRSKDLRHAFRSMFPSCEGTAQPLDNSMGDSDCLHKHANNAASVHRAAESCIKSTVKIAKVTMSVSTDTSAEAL
Protocol: In-vitro Determination of Efficacy and Potency at the Human CB1 Receptor Expressed in CHO Cells
Chinese Hamster Ovary (CHO) cells expressing the human CB1 receptor and a luciferase reporter gene were suspended in phenol red/serum free DMEM/F-12 nut mix containing penicillin/streptomycin (50 U/50 μg/ml) and fungizone (1 μg/ml) and seeded into 96 well plates at a density of 3×10^4 cells per well (100 μl final volume). Cells were incubated overnight (approx. 18 h at 37° C., 5% CO2/95% air) prior to assay. […] The stock solutions (10 μl) were added directly to the relevant wells. The plates were incubated at 37° C. for 5 h to allow agonist-induced expression of the luciferase enzyme. Under subdued light, LucLite substrate (Packard; reconstituted as per manufacturer's instructions; 100 μl) was added to each well. Plates were covered with Top Seal and then incubated at room temperature for 5 minutes before counting on the Packard TopCount (single photon counting, 0.01 minute count time, 5 minute count delay).

Mice = assay: Tail flick latency in mice; type: in vivo; conditions: Mus musculus, iv, administered intravenously, ED50 calculated at Tmax, significantly increased the tail flick latency, read-out: ED50 (increase of tail flick latency)
Protocol: Tail Flick Latency in Mice
Mice were trained to sit still in a tail flick apparatus (Ugo Basile, Italy) whilst tail flick latency was measured. The tail was exposed to a focused beam of radiant heat at a point approximately 2.5 cm from the tip. Tail flick latency was defined as the interval between the appliance of the thermal stimulus and withdrawal of the tail. A 12 second cut-off was employed to prevent tissue damage. Four groups of eight mice were treated with vehicle or one of three doses of the test compound, administered intravenously (vehicle: 10% Tween-80 in saline; injection volume 10 ml/kg). Tail flick latency was measured before administration of the test compound and at regular intervals (typically 20, 40 and 60 minutes) after compound administration. The ED50 was calculated at Tmax.

Question: `COc1cccc2c(-c3noc([C@H]4CCCN4C)n3)cn(CC3CCCCC3)c12` [Example 2G, (R)-1-(Cyclohexyl)methyl-7-methoxy-3-[5-(1-methylpyrrolidin-2-yl)-[1,2,4]oxadiazol-3-yl]-1H-indole, hydrochloride salt] was tested. Which EC50 (human CB1 receptor) did it give?
Answer: The EC50 was 0.0316 µM.

Question: What about the ED50 (Mice) of the same molecule?
Answer: Its ED50 is less than 5 µmol/kg.

Question: Which results are given for `CCN(CC)Cc1nc(-c2cn3c4c(cccc24)OC[C@H]3C2CCCCC2)ns1` [Example 13, (R)-3-Cyclohexyl-6-{5-[(diethylamino)methyl]-[1,2,4]-thiadiazol-3-yl}-2,3-dihydropyrrolo[1,2,3-de]-1,4-benzoxazine, hydrochloride salt]?
Answer: EC50 (human CB1 receptor): 0.00794 µM; ED50 (Mice): < 5 µmol/kg

Question: `Fc1cccc2c(-c3nsc(CN4CCCC4)n3)cn(CC3CCOCC3)c12` [Example 14B, 7-fluoro-3-{5-[(pyrrolidin-1-yl)methyl]-[1,2,4]-thiadiazol-3-yl}1-(tetrahydropyran-4-yl)methyl-1H-indole, hydrochloride salt] was tested. Which EC50 (human CB1 receptor) did it give?
Answer: Its EC50 is 0.0501 µM.

Question: What about the ED50 (Mice) of the same molecule?
Answer: The ED50 was less than 5 µmol/kg.

Question: Which results are given for `CCN(CCOC)Cc1nc(-c2cn(CC3CCOCC3)c3c(Cl)cccc23)ns1` [Example 15A, 7-chloro-3-(5-{[N-ethyl-N-(2-methoxyethyl)amino]methyl}-[1,2,4]-thiadiazol-3-yl)-1-(tetrahydropyran-4-yl)methyl-1H-indole, hydrochloride salt]?
Answer: EC50 (human CB1 receptor): 0.01 µM; ED50 (Mice): < 5 µmol/kg

Question: How did the EC50 (human CB1 receptor) turn out when `Clc1cccc2c(-c3nsc(CN4CCCC4)n3)cn(CC3CCOCC3)c12` [Example 15B, 7-chloro-3-{5-[(Pyrrolidin-1-yl)methyl]-[1,2,4]-thiadiazol-3-yl}1-(tetrahydropyran-4-yl)methyl-1H-indole, hydrochloride salt] was run?
Answer: The EC50 was 0.02 µM.

Question: And the ED50 (Mice)?
Answer: Its ED50 is less than 5 µmol/kg.

Question: With `CCN(CCO)Cc1nc(-c2cn(CC3CCOCC3)c3c(Cl)cccc23)ns1` [Example 15C, 7-chloro-3-(5-{[N-ethyl-N-(2-hydroxyethyl)amino]methyl}-[1,2,4]-thiadiazol-3-yl)-1-(tetrahydropyran-4-yl)methyl-1H-indole] as the molecule, how does the EC50 (human CB1 receptor) read?
Answer: The EC50 was 0.01 µM.

Question: What about the ED50 (Mice) of the same molecule?
Answer: Its ED50 is less than 5 µmol/kg.

Question: How did the EC50 (human CB1 receptor) turn out when `COCCN(Cc1csc(-c2cn(CC3CCCCC3)c3c(Cl)cccc23)n1)C(C)C` [Example 20, 7-Chloro-1-(cyclohexyl)methyl-3-(4-{[N-isopropyl-N-(2-methoxyethyl)amino]methyl}-[1,3]-thiazol-2-yl)-1H-indole, hydrochloride salt] was run?
Answer: The EC50 was 0.00501 µM.

Question: And the ED50 (Mice)?
Answer: Its ED50 is less than 5 µmol/kg.

Question: For `CC(C)N(CCO)Cc1csc(-c2cn(CC3CCOCC3)c3c(Cl)cccc23)n1` [Example 23B, 7-Chloro-3-(4-{[N-(2-hydroxyethyl)-N-isopropylamino]methyl}-1,3-thiazol-2-yl)-1-(tetrahydropyran-4-yl)methyl-1H-indole], which ED50 (Mice) is on record?
Answer: Its ED50 is less than 5 µmol/kg.

Question: `CCN(CCO)Cc1csc(-c2cn(CC3CCOCC3)c3c(Cl)cccc23)n1` [Example 23C, 7-Chloro-3-(4-{[N-ethyl-N-(2-hydroxyethyl)amino]methyl}-[1,3]-thiazol-2-yl)-1-(tetrahydropyran-4-yl)methyl-1H-indole] was tested. Which ED50 (Mice) did it give?
Answer: The ED50 was less than 5 µmol/kg.

Question: With `CCN(CC)Cc1ncc(-c2cn(CC3CCCCC3)c3c(OC)cccc23)o1` [Example 32, 1-(Cyclohexyl)methyl-3-{2-[(diethylamino)methyl]-[1,3]-oxazol-5-yl}-7-methoxy-1H-indole, hydrochloride salt] as the molecule, how does the EC50 (human CB1 receptor) read?
Answer: Its EC50 is 0.0501 µM.

Question: Which EC50 (human CB1 receptor) does the source give for `CCN1Cc2snc(-c3cn(CC4CCCCC4)c4c(OC)cccc34)c2C1` [Example 33, 1-(Cyclohexyl)methyl-3-(5-ethyl-5,6-dihydro-4H-pyrrolo[3,4-d]isothiazol-3-yl)-7-methoxy-1H-indole, hydrochloride salt] here?
Answer: Its EC50 is 0.0794 µM.

Question: With `COc1cccc2c(-c3nnc(CN4CCCC4)s3)cn(CC3CCCCC3)c12` [Example 38, 1-(Cyclohexyl)methyl-7-methoxy-3-{5-[(pyrrolidin-1-yl)methyl]-[1,3,4]-thiadiazol-2-yl}-1H-indole, hydrochloride salt] as the molecule, how does the EC50 (human CB1 receptor) read?
Answer: The EC50 was 0.0794 µM.

Question: What does the source list for `CC1(C)CCCN1Cc1nc(-c2cn(CC3CCOCC3)c3c(Cl)cccc23)no1` [Example 39, 7-Chloro-3-{5-[(2,2-dimethyl-pyrolidin-1-yl)methyl]-[1,2,4]oxadiazol-3-yl}-1-(tetrahydropyran-4-yl)methyl-1H-indole, hydrochloride salt]?
Answer: EC50 (human CB1 receptor): 0.0316 µM; ED50 (Mice): < 5 µmol/kg
